Results from paper PMC8128165, “Effect of amino acids and amines on the activity of the recombinant ι-carbonic anhydrase from the Gram-negative bacterium Burkholderia territorii” (Journal of Enzyme Inhibition and Medicinal Chemistry, 2021).

Tested on: BteCAι
Assay: stopped-flow CO2 hydration assay (activation)
Format: biochemical, Burkholderia territorii
Conditions: activation constant (not an association constant); CO2 substrate; 10 mM HEPES pH 7.5, 0.1 M NaClO4; 25 °C; activator
Excerpt: stopped-flow CO2 hydration assay (activation) on BteCAι

Compound | KA (μM)* / BteCAι^b
NCCc1c[nH]c2ccc(O)cc12 [compound 14, Serotonin] | 13.3 µM
N[C@H](Cc1c[nH]cn1)C(=O)O [compound 2, D-His] | 6.2 µM
N[C@H](Cc1c[nH]c2ccccc12)C(=O)O [compound 8, D-Trp] | 6.1 µM
N[C@@H](CC(=O)O)C(=O)O [compound 21, L-Asp] | 8.4 µM
NCCN1CCNCC1 [compound 17, 1-(2-Aminoethyl)-piperazine] | 3.9 µM
NC(=O)CC[C@H](N)C(=O)O [compound 24, L-Gln] | 5.8 µM
NCCc1ccc(O)c(O)c1 [compound 13, Dopamine] | 8.7 µM
N[C@H](Cc1ccc(O)c(O)c1)C(=O)O [compound 6, D-DOPA] | 11.7 µM
NCCN1CCOCC1 [compound 18, 4-(2-Aminoethyl)-morpholine] | 12.0 µM
N[C@H](CCC(=O)O)C(=O)O [compound 23, D-Glu] | 8.5 µM
N[C@@H](Cc1c[nH]c2ccccc12)C(=O)O [compound 7, L-Trp] | 10.2 µM
NCCc1c[nH]cn1 [compound 12, Histamine] | 6.0 µM
N[C@@H](Cc1cnc[nH]1)C(=O)O [compound 1, L-His] | 8.6 µM
N[C@@H](Cc1ccc(O)c(O)c1)C(=O)O [compound 5, L-DOPA] | 4.3 µM
N[C@H](Cc1ccccc1)C(=O)O [compound 4, D-Phe] | 9.4 µM
CNC[C@H](O)c1ccc(O)c(O)c1 [compound 19, L-Adrenaline] | 9.7 µM
Nc1ccc(C[C@H](N)C(=O)O)cc1 [compound 11, 4-H2N-L-Phe] | 6.9 µM
N[C@H](Cc1ccc(O)cc1)C(=O)O [compound 10, D-Tyr] | 7.3 µM
N[C@@H](Cc1ccc(O)cc1)C(=O)O [compound 9, L-Tyr] | 8.0 µM
